From ChEMBL document CHEMBL6087423, “Grafting a chromophore on AMD070 analogues for CXCR4 bioimaging: Chemical synthesis and in vitro assessment of the inhibition properties of the CXCR4 receptor” (Bioorg Med Chem Lett, 2025) come the findings set out here.

Assay [1] has as its target T1, C-X-C chemokine receptor type 4 (Homo sapiens, UniProt P61073). Put plainly: Inhibition of 12G5-PE binding to CXCR4 in human U266B1 cells assessed as cell viability incubated for 1 hr by DAPI staining based flow cytometric analysis. (A flow cytometer gives signals particle by particle.)
The target of assay [2] is T1, C-X-C chemokine receptor type 4. Put plainly: Binding affinity to CXCR4 (unknown origin).
In assay [3] the test system is Human immunodeficiency virus 2. Put plainly: Anti-HIV activity against HIV-2 ROD infected in MT-4 cells. It is filed as functional, organism-based. Conditions: Human immunodeficiency virus 2, ROD, MT4.
Assay [4] has as its system Human immunodeficiency virus 1. Put plainly: Anti-HIV activity against HIV-1 IIIB infected in MT-4 cells. Type of assay: functional, organism-based. As to conditions: Human immunodeficiency virus 1, IIIB, MT4.

T1 sequence (P61073 whole entry): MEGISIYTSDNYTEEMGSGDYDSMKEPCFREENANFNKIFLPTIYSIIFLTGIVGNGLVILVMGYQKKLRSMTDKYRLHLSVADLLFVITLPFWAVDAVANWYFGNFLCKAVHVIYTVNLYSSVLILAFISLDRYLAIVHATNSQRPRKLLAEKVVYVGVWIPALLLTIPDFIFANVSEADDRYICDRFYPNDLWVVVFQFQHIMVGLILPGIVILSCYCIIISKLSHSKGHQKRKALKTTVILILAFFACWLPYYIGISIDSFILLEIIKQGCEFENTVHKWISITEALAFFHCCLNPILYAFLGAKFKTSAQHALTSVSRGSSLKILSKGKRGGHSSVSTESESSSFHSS

The term IC50 denotes the midpoint of a concentration-inhibition curve. Consider `O=C1OC2(c3ccc(O)cc3Oc3cc(O)ccc32)c2ccc(NC(=S)NCCCCN(Cc3nc4ccccc4[nH]3)C3CCCc4cccnc43)cc21` (stereo not given), for which, in assay [1], the half-inhibitory concentration (IC50) was found to be 5620 nM. For the compound `NCc1cc(C(N)=O)ccc1CN(Cc1nc2ccccc2[nH]1)C1CCCc2cccnc21` (stereo not given), the IC50 in assay [2] came out at 10 nM. Still for that read-out and setting: under `COC(=O)C(=O)c1ccc(CN(Cc2nc3ccccc3[nH]2)C2CCCc3cccnc32)c(CN)c1` (stereo not given) stands 10 nM. As for `C1CNCCNCCCNC(C2CNCCCNCCNCCCN2)CNC1` (stereo not given), the half-maximal inhibitory concentration (IC50) in assay [3] and in assay [4] was 100 nM in each case.
